In patent US10584098B2, “Quinolone-3-diarylethers” (OREGON HEALTH & SCIENCE UNIVERSITY, priority 2015, dated 2020):
Read-outs that look alike come from different tables or passages of the source. Values belong to the molecule of their own block, whether it stands above or below them.

Experiments:
P. falciparum strain D6 = experiment: SYBR green antiplasmodial assay, strain D6; format: cell-based, Plasmodium falciparum
[1] = tested on: P. yoelii (Kenya strain, MR4 MRA-428); experiment: Single dose cure (SDC) of patent blood stage murine malaria infection; format: in vivo, Plasmodium yoelii; details: mice; for minimal effective dose: Plasmodium yoelii, po, 720 h, single dose, read-out: Lowest fully effective single dose cure P. yoelii; for lowest fully protective single-dose cure (SDC): single oral dose in PEG-400, parasite free 30 days
Description: As described above, mice (female, CF1, Charles River Labs) were infected intravenously with 10^5 P. yoelii (Kenya strain, MR4 MRA-428/Murine LDH Elevating Virus-Free) parasitized erythrocytes from a donor animal. Drug administration commenced the day after the animals were inoculated (Day 1). The test compounds were dissolved in PEG-400 and administered by oral gavage once. On the 5th day blood films were prepared and the extent of parasitemia was determined by microscopic examination of Giemsa stained smears. Animals remaining parasite free 30 days after the last drug dose were considered cured of their infection.

[2] = tested on: P. falciparum strain Tm90-C2B; experiment: SYBR green antiplasmodial assay, strain Tm90-C2B; format: cell-based, Plasmodium falciparum; details: read-out: IC50, nM, P. falciparum strain Tm90-C2B
P. falciparum strain Dd2 = experiment: SYBR green antiplasmodial assay, strain Dd2; format: cell-based, Plasmodium falciparum; details: read-out: IC50, nM, P. falciparum strain Dd2
[3] = biological target: Plasmodium falciparum cytochrome bc1 complex (Plasmodium falciparum, UniProt Q02768); experiment: Inhibition of cytochrome bc1 complex; format: biochemical
[4] = human, microsomes
P. yoelii = experiment: 4-day suppression test in P. yoelii infected mice; format: in vivo, Plasmodium yoelii; details: dosing on 4 sequential days, smears on Day 5
[5] = Chemical stability in solvent / acidic conditions; format: physicochemical
Description: Ethyl chloroformate is then added dropwise. The reaction goes to completion in minutes upon the addition of the chloroformate forming one regioisomer in very high yield. […] Results are summarized in Scheme 1

P. falciparum = experiment: In vitro intrinsic antiplasmodial activity against all test strains; format: cell-based, Plasmodium falciparum
[6] = Oral bioavailability in mice; format: in vivo; details: relative to ELQ-300
[7] = Oral bioavailability in rats; format: in vivo; details: relative to ELQ-300
[8] = In vivo efficacy of earlier prodrug versus parent compound; details: compared to the parent compound ELQ-300
[9] = Stability of prodrug to metabolism
[10] = Plasmodium falciparum, D6; read-out: P. falciparum strain D6, IC50
[11] = 72 h, resistant to chloroquine and atovaquone
[12] = 72 h, chloroquine sensitive strain; Table 1 of Example 4; read-out: IC50, nM, P. falciparum strain D6
[13] = 72 h, multidrug resistant strain
[14] = Plasmodium falciparum, TM90, 72 h, resistant to chloroquine and atovaquone
[15] = Plasmodium falciparum, D6, 72 h; read-out: IC50, nM, P. falciparum strain D6
[16] = Plasmodium falciparum, DD2, 72 h, multidrug resistant strain
[17] = single oral doses in the range of 1 to 20 mg/kg

SMILES: COc1cc2nc(C)c(-c3ccc(Oc4ccc(OC(F)(F)F)cc4)cc3)c(OC(=O)OC3CCS(=O)(=O)C3)c2cc1Cl (centres unmarked) [ELQ-355, 6-chloro-7-methoxy-2-methyl-3-(4-(4-(trifluoromethoxy)phenoxy)phenyl)quinolin-4-yl (1,1-dioxidotetrahydrothiophen-3-yl) carbonate]
IC50 (P. falciparum strain D6; [10]): 3.9 nM
minimal effective dose [1]: 4 mg/kg

SMILES: CCN(CC)CCCC(C)Nc1ccnc2cc(Cl)ccc12 (centres unmarked) [Chloroquine, reference compound]
IC50 ([2]; Plasmodium falciparum, TM90, 72 h): 98 nM
IC50 (P. falciparum strain D6; Plasmodium falciparum, D6, 72 h, read-out: IC50, nM, P. falciparum strain D6): 10 nM
IC50 (P. falciparum strain Dd2; Plasmodium falciparum, DD2, 72 h): 137 nM

SMILES: COCCOC(=O)Oc1c(-c2ccc(Oc3ccc(OC(F)(F)F)cc3)cc2)c(C)nc2cc(OC)c(Cl)cc12 [ELQ-354, 6-chloro-7-methoxy-2-methyl-3-(4-(4-(trifluoromethoxy)phenoxy)phenyl)quinolin-4-yl(2-methoxyethyl) carbonate]
IC50 (P. falciparum strain D6; [10]): 3 nM
minimal effective dose [1]: 3 mg/kg

SMILES: COc1cc2nc(C)c(-c3ccc(Oc4ccc(OC(F)(F)F)cc4)cc3)c(OC(=O)C(C)(C)C)c2cc1Cl [ELQ-357, 6-chloro-7-methoxy-2-methyl-3-(4-(4-(trifluoromethoxy)phenoxy)phenyl)quinolin-4-yl pivalate]
IC50 (P. falciparum strain D6; [10]): 3.5 nM
minimal effective dose [1]: 4 mg/kg

SMILES: COc1cc2[nH]c(C)c(-c3ccc(Oc4ccc(OC(F)(F)F)cc4)cc3)c(=O)c2cc1Cl [ELQ-300, reference compound]
IC50 [2, 14]: 2 nM
IC50 (P. falciparum strain D6; [15]): 6 nM
IC50 (P. falciparum strain D6; [10]): 3.1 nM
IC50 (P. falciparum strain Dd2; [16]): 6 nM
minimal effective dose [1]: > 20 mg/kg
parasitemia suppression [1, 17]: suppressed parasitemia completely
recrudescence [1, 17]: recrudescence occurred within two weeks of dosing
inhibition of cytochrome bc1 complex [3]: sub-nanomolar

SMILES: COc1cc2nc(C)c(-c3ccc(Oc4ccc(OC(F)(F)F)cc4)cc3)c(OC(=O)OC(C)(C)C)c2cc1Cl [ELQ-358, tert-butyl (6-chloro-7-methoxy-2-methyl-3-(4-(4-(trifluoromethoxy)phenoxy)phenyl)quinolin-4-yl) carbonate]
IC50 (P. falciparum strain D6; [10]): 6 nM
minimal effective dose [1]: > 4 mg/kg

SMILES: CCOC(=O)OCOc1c(-c2ccc(Oc3ccc(OC(F)(F)F)cc3)cc2)c(C)nc2cc(OC)c(Cl)cc12 [ELQ-331]
IC50 [2, 11]: 4 nM
IC50 (P. falciparum strain D6; [12]): 6 nM
t1/2 [4]: 37.7 min
lowest fully protective single-dose cure (SDC) [1]: 2.5 mg/kg

SMILES: CCOC(=O)Oc1c(-c2ccc(Oc3ccc(OC(F)(F)F)cc3)cc2)c(C)nc2cc(OC)c(Cl)cc12 [ELQ-337, 6-chloro-7-methoxy-2-methyl-3-(4-(4-(trifluoromethoxy)phenoxy)phenyl)quinolin-4-yl ethyl carbonate]
ED50 (P. yoelii): 0.02 mg/kg/day
ED90 (P. yoelii): 0.05 mg/kg/day
ED99 (P. yoelii): 0.075 mg/kg/day
chemical stability ([5]; 50/50 mixtures of methanol and water at pH 3 and 8 overnight): chemically stable
IC50 (P. falciparum strain D6; [10]): 2.5 nM
IC50 values against all test strains (P. falciparum): low to sub-nanomolar range
oral bioavailability [6]: enhanced over ELQ-300
minimal effective dose [1]: 3 mg/kg
animals in which single dose failed ([1]; 1 mg/kg, on Day 12): 4/4
single dose cures (SDC), animals cured ([1]; doses as low as 3 mg/kg): 4/4
oral bioavailability [7]: enhanced over ELQ-300

SMILES: COc1cc2nc(C)c(-c3ccc(Oc4ccc(OC(F)(F)F)cc4)cc3)c(OCOC(=O)OC(C)C)c2cc1Cl [ELQ-330]
IC50 [2, 11]: 47 nM
IC50 (P. falciparum strain D6; [12]): 62 nM
IC50 (P. falciparum strain Dd2; [13]): 38 nM
lowest fully protective single-dose cure (SDC) [1]: 5 mg/kg

SMILES: COC(=O)Oc1c(-c2ccc(Oc3ccc(OC(F)(F)F)cc3)cc2)c(C)nc2cc(OC)c(Cl)cc12 [ELQ-336, 6-chloro-7-methoxy-2-methyl-3-(4-(4-(trifluoromethoxy)phenoxy)phenyl)quinolin-4-yl methyl carbonate]
IC50 (P. falciparum strain D6; [10]): 2.5 nM
minimal effective dose [1]: 4 mg/kg

SMILES: O=C1C(O)=C([C@H]2CC[C@H](c3ccc(Cl)cc3)CC2)C(=O)c2ccccc21 [Atovaquone, reference compound]
IC50 [2, 14]: > 250 nM
IC50 (P. falciparum strain D6; [15]): 0.2 nM
IC50 (P. falciparum strain Dd2; [16]): 0.2 nM

SMILES: COc1cc2nc(C)c(-c3ccc(Oc4ccc(OC(F)(F)F)cc4)cc3)c(OC(=O)N(C)C)c2cc1Cl [ELQ-301]
in vivo efficacy compared to ELQ-300 [8]: inferior in vivo efficacy
stability to metabolism [9]: stable to metabolism

Continued, in another order:

IC50 [2, 11]: 231 nM
IC50 (P. falciparum strain D6; [12]): 326 nM
IC50 (P. falciparum strain Dd2; [13]): 141 nM
SMILES: CCOC(=O)OC(C)Oc1c(-c2ccc(Oc3ccc(OC(F)(F)F)cc3)cc2)c(C)nc2cc(OC)c(Cl)cc12 (centres unmarked) [ELQ-387]

IC50 (P. falciparum strain D6; [10]): 3.1 nM
SMILES: COc1cc2nc(C)c(-c3ccc(Oc4ccc(OC(F)(F)F)cc4)cc3)c(OC(=O)OCC3COC(=O)O3)c2cc1Cl (centres unmarked) [ELQ-373, 6-chloro-7-methoxy-2 methyl-3-(4-(4-(trifluoromethoxy)phenoxy)phenyl)quinolin-4-yl ((2-oxo-1,3-dioxolan-4-yl)methyl) carbonate]
minimal effective dose [1]: 4 mg/kg

IC50 (P. falciparum strain D6; [10]): 2.5 nM
SMILES: C=CCOC(=O)Oc1c(-c2ccc(Oc3ccc(OC(F)(F)F)cc3)cc2)c(C)nc2cc(OC)c(Cl)cc12 [ELQ-359, allyl (6-chloro-7-methoxy-2-methyl-3-(4-(4-(trifluoromethoxy)phenoxy)phenyl)quinolin-4-yl) carbonate]
minimal effective dose [1]: 4 mg/kg

stability in methanol [5]: decomposes rapidly in methanol
SMILES: COc1cc2nc(C)c(-c3ccc(Oc4ccc(OC(F)(F)F)cc4)cc3)c(OC(C)=O)c2cc1Cl [ELQ-370]
chemical stability to acid [5]: chemically unstable to mildly acidic conditions

IC50 (P. falciparum strain D6; [10]): 2.5 nM
SMILES: COc1cc2nc(C)c(-c3ccc(Oc4ccc(OC(F)(F)F)cc4)cc3)c(OC(=O)c3ccccc3)c2cc1Cl [ELQ-379, 6-chloro-7-methoxy-2-methyl-3-(4-(4-(trifluoromethoxy)phenoxy)phenyl)quinolin-4-yl benzoate]

IC50 (P. falciparum strain D6; [10]): 2.7 nM
SMILES: COc1cc2nc(C)c(-c3ccc(Oc4ccc(OC(F)(F)F)cc4)cc3)c(OC(=O)OCC3COC(C)(C)O3)c2cc1Cl (centres unmarked) [ELQ-374, 6-chloro-7-methoxy-2-methyl-3-(4-(4-(trifluoromethoxy)phenoxy)phenyl)quinolin-4-yl ((2,2-dimethyl-1,3-dioxolan-4-yl)methyl) carbonate]
minimal effective dose [1]: 4 mg/kg

IC50 (P. falciparum strain D6; [10]): 8.2 nM
SMILES: COc1cc2nc(C)c(-c3ccc(Oc4ccc(OC(F)(F)F)cc4)cc3)c(OC(=O)C(C)C)c2cc1Cl [ELQ-375, 6-chloro-7-methoxy-2-methyl-3-(4-(4-(trifluoromethoxy)phenoxy)phenyl)quinolin-4-yl isobutyrate]
minimal effective dose [1]: 4 mg/kg
